We go through 28 compounds from patent publication US10988477B2 (Merck Patent GmbH, priority 2018, dated 2021).

One test deals with GCN2 kinase (Homo sapiens, UniProt Q9P2K8). The test can be described thus: GCN2 enzyme inhibition assay (Transcreener ADP2 fluorescence polarization). It is filed as biochemical. The settings on record: Enzyme activity for compounds of Formula IV; Ki(app), 280 μM ATP, 25° C. The method in brief: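 FP detection of ADP (antibody plus Alexa633 tracer) after a 1 h, 25 °C kinase reaction. Enzyme 4 nM, ATP 280 μM, (RS)7 peptide 200 μM, Tris pH 7.5 buffer with MgCl2 and DTT. Percent inhibition fitted by non-linear tight-binding algorithm for IC50 and Ki(app).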
In general terms: Polarisation of emitted light reports the rotation of a fluorescent probe.

Test [1] concerns the target intracellular GCN2 (phosphorylation of the GCN2 substrate eIF2α) (Homo sapiens, UniProt Q9P2K8). The test can be described thus: GCN2 cellular inhibition assay (AlphaScreen SureFire P-eIF2α Ser51, borrelidin-treated U2OS cells). Format: cell-based. Conditions: compounds of Formula IV; biomarker assay, phosphorylated eIF2α Ser51 in borrelidin-treated U2OS cells. The method in brief:
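U2OS cells, adhered overnight, received compounds in 4-fold serial dilutions from 40 μM final, then 10 μM borrelidin for 1 h at 37 °C. Lysates were read by AlphaScreen for phospho-eIF2α Ser51; percent inhibition was set against borrelidin-only wells.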
(In general: In Alpha technology, singlet oxygen from a donor bead excites a nearby acceptor bead.)

A value given as a limit tells only on which side of the number the result lay.

Chain of intracellular GCN2 (phosphorylation of the GCN2 substrate eIF2α) (Q9P2K8 whole entry): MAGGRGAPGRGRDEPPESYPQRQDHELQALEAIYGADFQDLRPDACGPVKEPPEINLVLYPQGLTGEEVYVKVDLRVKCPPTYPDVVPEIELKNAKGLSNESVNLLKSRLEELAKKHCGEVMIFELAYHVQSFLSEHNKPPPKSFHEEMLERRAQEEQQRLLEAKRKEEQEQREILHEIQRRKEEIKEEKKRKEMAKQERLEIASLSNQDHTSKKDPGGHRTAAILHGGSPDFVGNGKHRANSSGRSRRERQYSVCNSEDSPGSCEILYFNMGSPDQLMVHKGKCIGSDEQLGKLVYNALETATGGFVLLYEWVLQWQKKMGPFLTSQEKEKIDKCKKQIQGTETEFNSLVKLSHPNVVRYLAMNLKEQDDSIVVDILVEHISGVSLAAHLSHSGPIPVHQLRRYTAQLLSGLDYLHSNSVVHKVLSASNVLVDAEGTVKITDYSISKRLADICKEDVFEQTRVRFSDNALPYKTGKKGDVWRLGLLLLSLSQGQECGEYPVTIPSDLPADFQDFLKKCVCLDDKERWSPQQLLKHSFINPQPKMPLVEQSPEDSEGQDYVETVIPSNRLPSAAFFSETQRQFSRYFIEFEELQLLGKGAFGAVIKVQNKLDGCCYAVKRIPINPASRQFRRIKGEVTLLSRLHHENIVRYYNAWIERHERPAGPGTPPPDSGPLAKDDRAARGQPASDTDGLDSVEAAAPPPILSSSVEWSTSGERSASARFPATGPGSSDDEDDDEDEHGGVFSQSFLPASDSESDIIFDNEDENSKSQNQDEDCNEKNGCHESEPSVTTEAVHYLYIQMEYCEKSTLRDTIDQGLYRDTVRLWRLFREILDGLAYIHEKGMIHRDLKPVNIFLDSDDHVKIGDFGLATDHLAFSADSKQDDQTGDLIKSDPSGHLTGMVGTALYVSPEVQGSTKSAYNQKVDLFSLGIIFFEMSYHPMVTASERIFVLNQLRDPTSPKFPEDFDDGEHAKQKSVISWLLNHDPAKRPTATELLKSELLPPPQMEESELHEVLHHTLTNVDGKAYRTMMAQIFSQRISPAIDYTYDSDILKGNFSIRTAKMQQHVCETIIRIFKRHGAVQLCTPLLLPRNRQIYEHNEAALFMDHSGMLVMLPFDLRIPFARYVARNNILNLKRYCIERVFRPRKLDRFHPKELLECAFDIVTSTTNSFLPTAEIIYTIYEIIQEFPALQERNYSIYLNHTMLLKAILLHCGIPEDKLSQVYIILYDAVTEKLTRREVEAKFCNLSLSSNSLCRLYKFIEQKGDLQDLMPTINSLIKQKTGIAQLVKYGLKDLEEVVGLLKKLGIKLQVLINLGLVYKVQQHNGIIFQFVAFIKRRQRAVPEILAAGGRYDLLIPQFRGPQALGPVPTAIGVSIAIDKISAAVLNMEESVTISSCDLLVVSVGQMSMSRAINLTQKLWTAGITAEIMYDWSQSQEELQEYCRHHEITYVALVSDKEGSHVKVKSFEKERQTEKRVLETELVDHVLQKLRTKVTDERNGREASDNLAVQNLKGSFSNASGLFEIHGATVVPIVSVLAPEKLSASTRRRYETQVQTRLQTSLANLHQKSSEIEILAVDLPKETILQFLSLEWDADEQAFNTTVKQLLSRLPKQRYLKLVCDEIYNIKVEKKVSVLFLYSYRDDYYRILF
Chain of GCN2 kinase (Q9P2K8 whole entry): as above

At GCN2 kinase, `COc1cc(N2CC(C)NC(c3cn[nH]c3)C2C)nc(-c2cnc3cnc(C(F)(F)F)cn23)n1` (centres unmarked) [IV-593, 3-(4-(2,5-Dimethyl-3-(1H-pyrazol-4-yl)piperazin-1-yl)-6-methoxypyrimidin-2-yl)-6-(trifluoromethyl)imidazo[1,2-a]pyrazine] came in with a Ki of under 10 nM. Besides, the IC50 (usually the midpoint of a concentration-inhibition curve) in test [1] is 500 to 5000 nM.

With `FC(F)(F)c1cn2c(-c3nccc(N4CCCC(c5cn[nH]c5Cl)C4)n3)cnc2cn1` (centres unmarked) [IV-601, 3-(4-(3-(5-Chloro-1H-pyrazol-4-yl)piperidin-1-yl)pyrimidin-2-yl)-6-(trifluoromethyl)imidazo[1,2-a]pyrazine], the Ki on GCN2 kinase is under 10 nM. The IC50 in test [1] is under 500 nM.

In turn, `FC(F)(F)c1cn2c(-c3nccc(N4CCC(C5CCOC5)C4)n3)cnc2cn1` (centres unmarked) [IV-608, 3-(4-(3-(Tetrahydrofuran-3-yl)pyrrolidin-1-yl)pyrimidin-2-yl)-6-(trifluoromethyl)imidazo[1,2-a]pyrazine] returned a Ki at GCN2 kinase of 100 to 1000 nM. Besides, in test [1], the IC50 lay in the range of 500 to 5000 nM.

As to `FC(F)(F)c1cn2c(-c3nccc(N4CCC(C5CCOC5)C4)n3)cnc2cn1` (centres unmarked) [IV-609, 3-(4-(3-(Tetrahydrofuran-3-yl)pyrrolidin-1-yl)pyrimidin-2-yl)-6-(trifluoromethyl)imidazo[1,2-a]pyrazine], the Ki on GCN2 kinase is 100 to 1000 nM. Further, the IC50 in test [1] was over 5000 nM.

On GCN2 kinase, `NC(=O)C1CCCN(c2ccnc(-c3cnc4cnc(C(F)(F)F)cn34)n2)C1` (centres unmarked) [IV-626, 1-(2-(6-(Trifluoromethyl)imidazo[1,2-a]pyrazin-3-yl)pyrimidin-4-yl)piperidine-3-carboxamide] had a Ki of under 10 nM. Further, the IC50 in test [1] is 500 to 5000 nM.

For the compound `Cc1cc(N2CC(C)NC(c3cn[nH]c3)C2C)nc(-c2cnc3cnc(C(F)(F)F)cn23)n1` (centres unmarked) [IV-627, 3-(4-(2,5-Dimethyl-3-(1H-pyrazol-4-yl)piperazin-1-yl)-6-methylpyrimidin-2-yl)-6-(trifluoromethyl)imidazo[1,2-a]pyrazine], at GCN2 kinase, the Ki is under 10 nM. In test [1], this compound showed an IC50 of 500 to 5000 nM.

On GCN2 kinase, `CC1(c2n[nH]cc2C2CCN(c3ccnc(-c4cnc5cnc(C(F)(F)F)cn45)n3)C2)CC1` (centres unmarked) [IV-630, 3-(4-(3-(3-(1-Methylcyclopropyl)-1H-pyrazol-4-yl)pyrrolidin-1-yl)pyrimidin-2-yl)-6-(trifluoromethyl)imidazo[1,2-a]pyrazine] registered a Ki of 10 to 100 nM. The compound further displayed an IC50 in test [1] of over 5000 nM.

`CC1CCC(C(N)=O)CN1c1ccnc(-c2cnc3cnc(C(F)(F)F)cn23)n1` (centres unmarked) [IV-631, 6-Methyl-1-(2-(6-(trifluoromethyl)imidazo[1,2-a]pyrazin-3-yl)pyrimidin-4-yl)piperidine-3-carboxamide] came in with a Ki on GCN2 kinase of 10 to 100 nM. Moreover, the IC50 in test [1] lay within 500 to 5000 nM.

Take `FC(F)(F)c1cn2c(-c3nccc(N4CCC(Cc5cn[nH]c5)C4)n3)cnc2cn1` (centres unmarked) [IV-635, 3-(4-(3-((1H-Pyrazol-4-yl)methyl)pyrrolidin-1-yl)pyrimidin-2-yl)-6-(trifluoromethyl)imidazo[1,2-a]pyrazine]: the Ki on GCN2 kinase was in the range of 10 to 100 nM. The compound further registered an IC50 in test [1] of 500 to 5000 nM.

`CC1CN(c2cc(N3CCC3)nc(-c3cnc4cnc(C(F)(F)F)cn34)n2)C(C)C(c2cn[nH]c2)N1` (centres unmarked) [IV-637, 3-(4-(Azetidin-1-yl)-6-(2,5-dimethyl-3-(1H-pyrazol-4-yl)piperazin-1-yl)pyrimidin-2-yl)-6-(trifluoromethyl)imidazo[1,2-a]pyrazine] registered a Ki on GCN2 kinase of under 10 nM. In test [1], this compound gave an IC50 of 500 to 5000 nM.

In the case of `CC1CN(c2cc(OCCO)nc(-c3cnc4cnc(C(F)(F)F)cn34)n2)C(C)C(c2cn[nH]c2)N1` (centres unmarked) [IV-640, 2-((6-(2,5-Dimethyl-3-(1H-pyrazol-4-yl)piperazin-1-yl)-2-(6-(trifluoromethyl)imidazo[1,2-a]pyrazin-3-yl)pyrimidin-4-yl)oxy)ethan-1-ol], the Ki on GCN2 kinase was under 10 nM. This compound also had an IC50 in test [1] of 500 to 5000 nM.

Regarding `CC1CN(c2cc(N=S(C)(C)=O)nc(-c3cnc4cnc(C(F)(F)F)cn34)n2)C(C)C(c2cn[nH]c2)N1` (centres unmarked) [IV-648, ((6-(2,5-Dimethyl-3-(1H-pyrazol-4-yl)piperazin-1-yl)-2-(6-(trifluoromethyl)imidazo[1,2-a]pyrazin-3-yl)pyrimidin-4-yl)imino)dimethyl-λ^6-sulfanone], the Ki at GCN2 kinase is under 10 nM. Also, the IC50 in test [1] fell in the range of 500 to 5000 nM.

Compound `Cc1cc(N2CCC(c3cn[nH]c3)C2)nc(-c2cnc3cnc(C(F)(F)F)cn23)n1` (centres unmarked) [IV-668, 3-(4-(3-(1H-Pyrazol-4-yl)pyrrolidin-1-yl)-6-methylpyrimidin-2-yl)-6-(trifluoromethyl)imidazo[1,2-a]pyrazine] registered a Ki on GCN2 kinase of 10 to 100 nM. For the same compound, in test [1], the IC50 lay within 500 to 5000 nM.

`FC(F)(F)c1cn2c(-c3nccc(N4CCCC(c5nccs5)C4)n3)cnc2cn1` (centres unmarked) [IV-675, 2-(1-(2-(6-(Trifluoromethyl)imidazo[1,2-a]pyrazin-3-yl)pyrimidin-4-yl)piperidin-3-yl)thiazole]: on GCN2 kinase, the Ki fell in the range of 10 to 100 nM. Also, the IC50 in test [1] was over 5000 nM.

On GCN2 kinase, `CC1NCC(C)N(c2ccnc(-c3cnc4cnc(C(F)(F)F)cn34)n2)C1c1ccc(=O)[nH]c1` (centres unmarked) [IV-676, 5-(3,6-Dimethyl-1-(2-(6-(trifluoromethyl)imidazo[1,2-a]pyrazin-3-yl)pyrimidin-4-yl)piperazin-2-yl)pyridin-2(1H)-one] displayed a Ki of 100 to 1000 nM. In test [1], this compound yielded an IC50 of 500 to 5000 nM.

The compound `CC1CN(c2ccnc(-c3cnc4cnc(C(F)(F)F)cn34)n2)C(C)C(c2ccc(=O)[nH]c2)N1` (centres unmarked) [IV-677, 5-(3,6-Dimethyl-4-(2-(6-(trifluoromethyl)imidazo[1,2-a]pyrazin-3-yl)pyrimidin-4-yl)piperazin-2-yl)pyridin-2(1H)-one] registered a Ki on GCN2 kinase of 10 to 100 nM. In addition, the IC50 in test [1] fell in the range of 500 to 5000 nM.

The compound `FC(F)(F)c1cn2c(-c3nccc(N4CCCC(c5cnco5)C4)n3)cnc2cn1` (centres unmarked) [IV-678, 5-(1-(2-(6-(Trifluoromethyl)imidazo[1,2-a]pyrazin-3-yl)pyrimidin-4-yl)piperidin-3-yl)oxazole] showed a Ki on GCN2 kinase of 10 to 100 nM. Besides, the IC50 in test [1] was in the range of 500 to 5000 nM.

On GCN2 kinase, `FC(F)(F)c1cn2c(-c3nccc(N4CC(c5cn[nH]c5)N5CCC[C@H]5C4)n3)cnc2cn1` (stereo partly drawn) [IV-679, 3-(4-((8aS)-4-(1H-Pyrazol-4-yl)hexahydropyrrolo[1,2-a]pyrazin-2(1H)-yl)pyrimidin-2-yl)-6-(trifluoromethyl)imidazo[1,2-a]pyrazine] displayed a Ki of under 10 nM. In test [1], this compound showed an IC50 of 500 to 5000 nM.

On to `FC(F)(F)c1cn2c(-c3nccc(N4CCC(c5cn[nH]c5)CC4)n3)cnc2cn1` [IV-680, 3-(4-(4-(1H-Pyrazol-4-yl)piperidin-1-yl)pyrimidin-2-yl)-6-(trifluoromethyl)imidazo[1,2-a]pyrazine], for which the Ki at GCN2 kinase was in the range of 10 to 100 nM. Also, the IC50 in test [1] was 500 to 5000 nM.

For the compound `FC(F)(F)c1cn2c(-c3nccc(N4CCCC(c5ncco5)C4)n3)cnc2cn1` (centres unmarked) [IV-686, 2-(1-(2-(6-(Trifluoromethyl)imidazo[1,2-a]pyrazin-3-yl)pyrimidin-4-yl)piperidin-3-yl)oxazole], on GCN2 kinase, the Ki fell in the range of 100 to 1000 nM. For the same compound, the IC50 in test [1] was in the range of 500 to 5000 nM.

At GCN2 kinase, `CC1CN(c2ccnc(-c3cnc4cnc(C(F)(F)F)cn34)n2)C(C)C(c2cnn(C)c2)N1` (centres unmarked) [IV-687, 3-(4-(2,5-Dimethyl-3-(1-methyl-1H-pyrazol-4-yl)piperazin-1-yl)pyrimidin-2-yl)-6-(trifluoromethyl)imidazo[1,2-a]pyrazine] registered a Ki of 100 to 1000 nM. For the same compound, the IC50 in test [1] was 500 to 5000 nM.

`CC1C(c2cn[nH]c2)CCN1c1ccnc(-c2cnc3cnc(C(F)(F)F)cn23)n1` (centres unmarked) [IV-688, 3-(4-(2-Methyl-3-(1H-pyrazol-4-yl)pyrrolidin-1-yl)pyrimidin-2-yl)-6-(trifluoromethyl)imidazo[1,2-a]pyrazine] yielded a Ki on GCN2 kinase of 10 to 100 nM. Further, the IC50 in test [1] was 500 to 5000 nM.

Consider `CC1C(c2cn[nH]c2)CCN1c1ccnc(-c2cnc3cnc(C(F)(F)F)cn23)n1` (centres unmarked) [IV-689, 3-(4-(2-Methyl-3-(1H-pyrazol-4-yl)pyrrolidin-1-yl)pyrimidin-2-yl)-6-(trifluoromethyl)imidazo[1,2-a]pyrazine], for which, on GCN2 kinase, the Ki lay in the range of 10 to 100 nM. This compound also gave an IC50 in test [1] of over 5000 nM.

Compound `CC1CN(c2cc(F)cc(-c3cnc4cnc(C(F)(F)F)cn34)n2)C(C)C(c2cn[nH]c2)N1` (centres unmarked) [IV-690, 3-(6-(2,5-Dimethyl-3-(1H-pyrazol-4-yl)piperazin-1-yl)-4-fluoropyridin-2-yl)-6-(trifluoromethyl)imidazo[1,2-a]pyrazine] gave a Ki at GCN2 kinase of under 10 nM. The compound also displayed an IC50 in test [1] of 500 to 5000 nM.

In the case of `FC(F)(F)c1cn2c(-c3nccc(N4CCCC(c5cncs5)C4)n3)cnc2cn1` (centres unmarked) [IV-691, 5-(1-(2-(6-(Trifluoromethyl)imidazo[1,2-a]pyrazin-3-yl)pyrimidin-4-yl)piperidin-3-yl)thiazole], on GCN2 kinase, the Ki lay within 10 to 100 nM. Further, the IC50 in test [1] is 500 to 5000 nM.

At GCN2 kinase, `FC(F)(F)c1cn2c(-c3nccc(N4CCC5(CC4)CNC5)n3)cnc2cn1` [IV-692, 3-(4-(2,7-Diazaspiro[3.5]nonan-7-yl)pyrimidin-2-yl)-6-(trifluoromethyl)imidazo[1,2-a]pyrazine] returned a Ki of 100 to 1000 nM. Besides, the IC50 in test [1] was over 5000 nM.

`CC1C(c2cn[nH]c2)CC(P(C)(C)=O)CN1c1ccnc(-c2cnc3cnc(C(F)(F)F)cn23)n1` (centres unmarked) [IV-693, Dimethyl(6-methyl-5-(1H-pyrazol-4-yl)-1-(2-(6-(trifluoromethyl)imidazo[1,2-a]pyrazin-3-yl)pyrimidin-4-yl)piperidin-3-yl)phosphine oxide] showed a Ki on GCN2 kinase of 10 to 100 nM. Moreover, the IC50 in test [1] was over 5000 nM.

With `FC(F)(F)c1cn2c(-c3nccc(N4CCCC(c5cocn5)C4)n3)cnc2cn1` (centres unmarked) [IV-694, 4-(1-(2-(6-(Trifluoromethyl)imidazo[1,2-a]pyrazin-3-yl)pyrimidin-4-yl)piperidin-3-yl)oxazole], the Ki at GCN2 kinase was in the range of 100 to 1000 nM. Further, the IC50 in test [1] is over 5000 nM.
